Source: ChEMBL document CHEMBL5356990, “Overview of CFTR activators and their recent studies for dry eye disease: a review” (RSC Med Chem, 2023)

Experiments:
[1] = target: T1, Cystic fibrosis transmembrane conductance regulator (Homo sapiens, UniProt P13569); assay: Activation of wildtype CFTR (unknown origin) expressed in CHO cells; type: cell-based
[2] = target: T1, Cystic fibrosis transmembrane conductance regulator; assay: Activation of human CFTR expressed in rat FRT cells; type: cell-based
[3] = (§1) In vivo activation CFTR expressed in wild-type CD1 mouse assessed as hyperpolarization of ocular surface by measuring potential difference at 1 to 10 uM; type: functional; conditions: dose 1-10 µM
[4] = test system: Cystic fibrosis transmembrane conductance regulator (Homo sapiens), P13569 [G551D]; assay: Activation of CFTR G551D mutant (unknown origin); conditions: filed as opener
[5] = target: T1, Cystic fibrosis transmembrane conductance regulator; assay: Activation of human wildtype CFTR
[6] = target: T1, Cystic fibrosis transmembrane conductance regulator; assay: Activation of human wildtype CFTR expressed in rat FRT cells by patch clamp analysis; type: cell-based
[7] = target: T1, Cystic fibrosis transmembrane conductance regulator; assay: Activation of wildtype CFTR in human Calu-3 cells; type: cell-based
[8] = target: T1, Cystic fibrosis transmembrane conductance regulator; assay: Binding affinity at human wildtype CFTR assessed as inhibition constant by fluorescence based analysis
[9] = target: T1, Cystic fibrosis transmembrane conductance regulator; assay: Activation of CFTR (unknown origin)
[10] = test system: Mus musculus; assay: as §1; type: functional; conditions: dose 1-10 µM

T1 sequence (P13569 whole entry): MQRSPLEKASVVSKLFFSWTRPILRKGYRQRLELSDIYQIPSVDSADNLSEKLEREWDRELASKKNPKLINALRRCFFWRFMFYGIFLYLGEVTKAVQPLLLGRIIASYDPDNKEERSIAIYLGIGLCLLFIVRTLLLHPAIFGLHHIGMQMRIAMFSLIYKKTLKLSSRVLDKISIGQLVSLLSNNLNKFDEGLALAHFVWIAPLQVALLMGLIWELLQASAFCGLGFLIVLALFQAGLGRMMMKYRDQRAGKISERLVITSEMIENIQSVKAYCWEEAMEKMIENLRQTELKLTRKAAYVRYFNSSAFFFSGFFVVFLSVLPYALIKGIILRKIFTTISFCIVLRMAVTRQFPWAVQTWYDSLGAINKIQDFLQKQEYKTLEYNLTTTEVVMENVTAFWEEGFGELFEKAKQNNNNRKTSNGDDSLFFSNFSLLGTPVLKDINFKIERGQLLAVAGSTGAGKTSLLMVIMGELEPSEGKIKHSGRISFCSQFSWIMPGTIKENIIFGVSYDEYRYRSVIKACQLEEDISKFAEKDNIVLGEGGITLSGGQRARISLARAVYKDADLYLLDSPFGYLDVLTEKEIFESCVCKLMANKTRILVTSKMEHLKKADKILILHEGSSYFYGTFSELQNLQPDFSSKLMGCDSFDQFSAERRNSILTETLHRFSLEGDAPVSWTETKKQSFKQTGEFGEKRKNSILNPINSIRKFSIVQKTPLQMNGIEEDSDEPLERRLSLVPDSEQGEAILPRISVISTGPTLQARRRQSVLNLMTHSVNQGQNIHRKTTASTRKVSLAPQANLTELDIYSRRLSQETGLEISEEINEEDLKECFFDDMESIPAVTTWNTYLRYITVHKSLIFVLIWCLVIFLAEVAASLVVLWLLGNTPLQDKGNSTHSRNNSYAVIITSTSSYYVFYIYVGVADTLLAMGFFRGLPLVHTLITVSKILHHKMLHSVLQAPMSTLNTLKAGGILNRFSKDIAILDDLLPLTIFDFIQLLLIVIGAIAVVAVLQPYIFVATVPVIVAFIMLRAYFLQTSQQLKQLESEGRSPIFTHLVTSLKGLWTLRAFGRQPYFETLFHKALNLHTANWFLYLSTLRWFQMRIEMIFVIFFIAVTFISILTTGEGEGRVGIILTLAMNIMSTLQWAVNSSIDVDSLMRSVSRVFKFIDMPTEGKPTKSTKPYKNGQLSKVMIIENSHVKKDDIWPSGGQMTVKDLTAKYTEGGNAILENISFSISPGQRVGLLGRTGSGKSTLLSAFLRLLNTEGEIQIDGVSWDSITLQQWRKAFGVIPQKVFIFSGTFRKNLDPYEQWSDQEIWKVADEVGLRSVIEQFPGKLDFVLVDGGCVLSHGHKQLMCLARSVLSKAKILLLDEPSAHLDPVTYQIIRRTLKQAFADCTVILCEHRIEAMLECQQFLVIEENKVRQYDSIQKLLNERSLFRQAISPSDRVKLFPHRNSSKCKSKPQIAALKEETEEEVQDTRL
Sequence of Cystic fibrosis transmembrane conductance regulator (Homo sapiens), P13569 [G551D] (P13569 whole entry G551D): as the sequence (P13569 whole entry) above, with G551D counted along it

Row | Compound | EC50 [2] [nM] | Activity [3] [mV] | also measured
1 | CCCn1cnc2c1N=CN1C2=N[C@](C)(C(=O)O)[C@H](O)[C@@]1(C)O | – | – | EC50 [1]: 2900 nM
2 | CC/N=C1\S/C(=C\c2ccc3c(c2)OCO3)C(=O)N1CC | 2000 | -2.5 | –
3 | CCCn1cnc2c1N=CN1C2=N[C@](C)(C(=O)O)[C@@H](O)[C@@]1(C)O | – | – | EC50 [1]: 2100 nM
4 | O=C(c1cccs1)N1N=C(c2ccccc2)CC1c1ccccc1[N+](=O)[O-] (stereo unspecified) | 385 | -4.1 | –
5 | CCCCc1c(-c2ccc(O)cc2)[nH]c2nccnc12 | – | – | Activity [4]: 1.5 nM
6 | CNc1nc(Nc2cccc([N+](=O)[O-])c2)nc(OCC(F)(F)F)n1 | 400 | -7.4 | –
7 | CNc1nc(Nc2ccccc2)nc(OCC(F)(F)C(F)F)n1 | – | – | EC50 [5]: ~30 nM
8 | Nc1ccc([N+](=O)[O-])cc1-c1nc2ccccc2n(Cc2ccccc2)c1=O | 138 | -9.1 | EC50 [6]: ~200 nM
9 | CC(C)Cn1c(=O)n(C)c(=O)c2[nH]cnc21 [ISOBUTYLMETHYLXANTHINE] | – | – | EC50 [7]: 45000 nM
10 | Cc1cc(C)cc(/N=C2/NC(=O)/C(=C/c3ccc(O)cc3)S2)c1 | 332 | -8.6 | –
11 | O=c1cc(-c2ccncc2)oc2c1cc(-c1ccco1)c1ccccc12 | – | – | Ki [8]: 1700 nM
12 | CC(C)Cn1c(=O)c2[nH]cnc2n(C)c1=O | – | – | EC50 [7]: 100000 nM
13 | CC(C)c1ccc(NC(=O)[C@H](c2ccccc2)N(C)C(=O)Cc2c[nH]c3ccccc23)cc1 | – | – | EC50 [9]: 70 nM
14 | CCN(CC)c1nc(Nc2ccccc2)nc(OC(C(F)(F)F)C(F)(F)F)n1 | – | -8.5 | –
15 | CNc1nc(Nc2ccc([N+](=O)[O-])cc2)nc(OCC(F)(F)C(F)F)n1 | – | -10 | –
16 | O=c1cc(-c2ccc(O)cc2)oc2cc(O)cc(O)c12 [APIGENIN] | – | – | Ki [8]: 4800 nM
17 | CC(C)(C)c1cc(C(C)(C)C)c(NC(=O)c2c[nH]c3ccccc3c2=O)cc1O | – | – | Activity [10]: -1.8 mV

The next lines start with results.

Row | EC50 [2] [nM] | Compound | Activity [3] [mV] | also measured
18 | 340 | COc1ccccc1CC(=O)Nc1nnc(Cc2ccc(OC)c(OC)c2)s1 | -9.9 | –
19 | 571 | COc1ccc(Cc2nnc(NC(=O)Cc3c(F)cccc3Cl)s2)cc1OC | -3.1 | –
20 | 377 | CCOc1ccccc1CC(=O)Nc1nnc(Cc2ccc(OC)c(OC)c2)s1 | -3.4 | –
21 | 685 | COc1ccc(Cc2nnc(NC(=O)Cc3cccs3)s2)cc1OC | -2.5 | –
